According to patent US20160318866A1, “SUBSTITUTED BIPIPERIDINYL DERIVATIVES” (Bayer Pharma Aktiengesellschaft, priority 2013, published 2016):
Where a name gives a salt, the structure may show the parent alone.

Target: T1, human α2C receptor (Homo sapiens, UniProt P18825)
T1 construct: expressed in transfected cells; host or cells: CHO cells, also recombinantly expressing chimeric G protein Gαqi3 and mitochondrial obelin (mtOb)
T1 sequence (P18825 1-462): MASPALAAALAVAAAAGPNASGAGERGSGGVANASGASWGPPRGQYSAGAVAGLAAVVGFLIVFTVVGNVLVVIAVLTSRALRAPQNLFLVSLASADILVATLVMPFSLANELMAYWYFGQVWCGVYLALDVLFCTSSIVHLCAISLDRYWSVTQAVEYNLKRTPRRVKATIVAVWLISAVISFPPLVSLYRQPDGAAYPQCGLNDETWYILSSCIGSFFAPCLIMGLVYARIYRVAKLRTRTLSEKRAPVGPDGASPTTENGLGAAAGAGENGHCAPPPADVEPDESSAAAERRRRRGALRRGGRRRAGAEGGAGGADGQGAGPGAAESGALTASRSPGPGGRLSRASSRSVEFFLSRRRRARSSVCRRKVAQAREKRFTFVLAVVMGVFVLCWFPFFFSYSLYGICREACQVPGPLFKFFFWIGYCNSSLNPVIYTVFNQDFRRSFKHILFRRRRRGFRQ
Test: Antagonism against the adrenoreceptor α2C (luminescence, recombinant CHO cell line)
Assay type: cell-based
Settings: antagonism against adrenoreceptor α2C; noradrenaline 20 nM; tested up to 10 μM; read-out: IC50
Method in brief: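 CHO cells expressing human α2C receptor with chimeric Gαqi3 and mitochondrial obelin, loaded with 2.5 μg/ml coelenterazine for one day at 30 °C.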

For `C[C@@H]1CCCN(C2CCN(C(=O)c3ccc(C(=O)NCc4cccnc4Cl)cc3)CC2)C1` [Example 83, (R)—N-[(2-Chloropyridin-3-yl)methyl]-4-{[(3R)-3-methyl-1,4′-bipiperidin-1′-yl]carbonyl}benzamide trifluoroacetic acid salt], the IC50 was 7 nM.

Work on `CC1CCCN(C2CCN(C(=O)c3ccc(C(=O)NC(C)(C)C)c(F)c3)CC2)C1` (stereo not shown) [Example 103, N-tert-Butyl-2-fluoro-4-[(3-methyl-1,4′-bipiperidin-1′-yl)carbonyl]benzamide] yielded an IC50 of 73 nM.

Compound `CC(c1ccccc1)N(C)C(=O)c1ccc(C(=O)N2CCC(N3CCC[C@@H](C)C3)CC2)cc1` (stereo partly drawn) [Example 43, N-Methyl-4-{[(3R)-3-methyl-1,4′-bipiperidin-1′-yl]carbonyl}-N-(1-phenylethyl)benzamide] has an IC50 of 39 nM.

In the case of `CC1=C(C)CN(C2CCN(C(=O)c3ccc(C(C)(C)C)cc3)CC2)CC1` [Example 17, 1-[1-(4-tert-Butylbenzoyl)piperidin-4-yl]-4,5-dimethyl-1,2,3,6-tetrahydropyridine], the IC50 is reported as 34 nM.

With `CCCN(CC1CC1)C(=O)c1ccc(C(=O)N2CCC(N3CCCC(C)C3)CC2)cc1` (stereo not shown) [Example 51, N-(cyclopropyl-methyl)-4-[(3-methyl-1,4′-bipiperidin-1′-yl)carbonyl]-N-propylbenzamide] the IC50 was 180 nM.

With `CC1CCCN(C2CCN(C(=O)c3ccc(C(C)C)cc3)CC2)C1` (stereo not shown) [Example 4, (4-Isopropylphenyl)(3-methyl-1,4′-bipiperidin-1′-yl)methanone] the IC50 was 294 nM.

For `C[C@@H]1CCCN(C2CCN(C(=O)c3ccc(C(=O)NC(C)(C)C)c(Cl)c3)CC2)C1` [Example 100, N-tert-Butyl-2-chloro-4-{[(3R)-3-methyl-1,4′-bipiperidin-1′-yl]carbonyl}benzamide formic acid salt], the IC50 was 27 nM.

For `CCOC(=O)c1ccc(C(=O)N2CCC(N3CCCC(C)C3)CC2)cc1` (stereo not shown) [Example 32, 1-{1-[4-(Ethoxycarbonyl)benzoyl]piperidin-4-yl}-3-methylpiperidine trifluoroacetic acid salt], the IC50 was 222 nM.

`Cc1cccnc1CNC(=O)c1ccc(C(=O)N2CCC(C3CCCC(C)C3)CC2)cc1` (stereo not shown) [Example 74, 4-{[4-(3-Methylcyclohexyl)piperidin-1-yl]carbonyl}-N-[(3-methylpyridin-2-yl)methyl]benzamide trifluoroacetic acid salt] was tested, and the IC50 was 155 nM.

`CC1CCCN(C2CCN(C(=O)c3ccc(C(=O)NC(C)C(C)C)cc3)CC2)C1` (stereo not shown) [Example 47, 4-[(3-methyl-1,4′-bipiperidin-1′-yl)carbonyl]-N-(3-methylbutan-2-yl)benzamide] showed an IC50 of 150 nM.

`CC(C)(C)c1ccc(C(=O)N2CCC(N3CCCC(OC(=O)N4CCCC4)C3)CC2)cc1` (stereo not shown) [Example 40, 1′-(4-tert-Butylbenzoyl)-1,4′-bipiperidin-3-yl-pyrrolidin-1-carboxylate trifluoroacetic acid salt] was tested, and the IC50 was 127 nM.

Work on `C[C@@H]1CCCN(C2CCN(C(=O)c3ccc(C(=O)NCc4cc(C(F)(F)F)c(Cl)cn4)cc3)CC2)C1` [Example 92, N-{[5-Chloro-4-(trifluoromethyl)pyridin-2-yl]methyl}-4-{[(3R)-3-methyl-1,4′-bipiperidin-1′-yl]carbonyl}benzamide] yielded an IC50 of 160 nM.

Compound `CC1CCCN(C2CCN(C(=O)c3ccc(C(=O)NC(C)(C)c4cc(Cl)cc(Cl)c4)cc3)CC2)C1` (stereo not shown) [Example 80, N-[2-(3,5-Dichlorophenyl)propan-2-yl]-4-[(3-methyl-1,4′-bipiperidin-1′-yl)carbonyl]benzamide trifluoroacetic acid salt] has an IC50 of 150 nM.

Compound `CC(C)(C)c1ccc(C(=O)N2CCC(N3CCCC(OC(=O)NC4CC4)C3)CC2)cc1` (stereo not shown) [Example 16, 1′-(4-tert-Butylbenzoyl)-1,4′-bipiperidin-3-yl cyclopropylcarbamate] has an IC50 of 380 nM.

`COCC1CCCN(C2CCN(C(=O)c3ccc(C(C)(C)O)cc3)CC2)C1` (stereo not shown) [Example 58, [4-(2-Hydroxypropan-2-yl)phenyl][3-(methoxymethyl)-1,4′-bipiperidin-1′-yl]methanone] gave an IC50 of 25 nM.

In the case of `COC(=O)C(C)(C)c1ccc(C(=O)N2CCC(N3CCCC(C)C3)CC2)c(F)c1` (stereo not shown) [Example 41, Methyl 2-{3-fluoro-4-[(3-methyl-1,4′-bipiperidin-1′-yl)carbonyl]phenyl}-2-methylpropanoate trifluoroacetic acid salt], the IC50 is reported as 199 nM.

`COCC(C)NC(=O)c1ccc(C(=O)N2CCC(N3CCCC(C)C3)CC2)cc1` (stereo not shown) [Example 55, N-(1-methoxypropan-2-yl)-4-[(3-methyl-1,4′-bipiperidin-1′-yl)carbonyl]benzamide] was tested, and the IC50 was 330 nM.

`CC(C)(O)c1ccc(C(=O)N2CCC(N3CCCC(OCC4CC4)C3)CC2)cc1` (stereo not shown) [Example 128, [3-(Cyclopropylmethoxy)-1,4′-bipiperidin-1′-yl][4-(2-hydroxypropan-2-yl)phenyl]methanone] was tested, and the IC50 was 36 nM.

`CC(C)(O)c1ccc(C(=O)N2CCC(N3CCCC(COC(F)(F)F)C3)CC2)cc1` (stereo not shown) [Example 110, [4-(2-Hydroxypropan-2-yl)phenyl]{3-[(trifluoromethoxy)methyl]-1,4′-bipiperidin-1′-yl}methanone] was tested, and the IC50 was 7 nM.

`CC1=C(C)CN(C2CCN(C(=O)c3ccc(C(=O)Nc4c(C)noc4C)cc3)CC2)CC1` [Example 104, 4-{[4-(4,5-Dimethyl-3,6-dihydropyridin-1 (2H)-yl)piperidin-1-yl]carbonyl}-N-(3,5-dimethyl-1,2-oxazol-4-yl)benzamide] was tested, and the IC50 was 9 nM.

`COc1cc(C(C)(C)C)ccc1C(=O)N1CCC(N2CCCC(C)C2)CC1` (stereo not shown) [Example 15, (4-tert-Butyl-2-methoxyphenyl)(3-methyl-1,4′-bipiperidin-1′-yl)methanone] gave an IC50 of 98 nM.

For `CC1CCCN(C2CCN(C(=O)c3ccc(C(=O)NC(C)(C)c4ccc(Cl)cc4)cc3)CC2)C1` (stereo not shown) [Example 77, N-[2-(4-Chlorophenyl)propan-2-yl]-4-[(3-methyl-1,4′-bipiperidin-1′-yl)carbonyl]benzamide trifluoroacetic acid salt], the IC50 was 54 nM.

For `COCCc1noc(C2CCCN(C3CCN(C(=O)c4ccc(C(C)(C)C)cc4)CC3)C2)n1` (stereo not shown) [Example 109, (4-tert-Butylphenyl){3[3-(2-methoxyethyl)-1,2,4-oxadiazol-5-yl]-1,4′-bipiperidin-1′-}methanone], the IC50 was 104 nM.

`CC(C)(O)c1ccc(C(=O)N2CCC(N3CCCC(OCC4CCC4)C3)CC2)cc1` (stereo not shown) [Example 111, [3-(Cyclobutylmethoxy)-1,4′-bipiperidin-1-yl][4-(2-hydroxypropan-2-yl)phenyl]methanone] gave an IC50 of 10 nM.

With `CC1CCCN(C2CCN(C(=O)c3ccc(COc4ccccc4)cc3)CC2)C1` (stereo not shown) [Example 14, [4-(Phenoxymethyl)phenyl](3-methyl-1,4′-bipiperidin-1′-yl)methanone] the IC50 was 115 nM.

With `CC(C)(O)c1ccc(C(=O)N2CCC(N3CCCC(OC4CC4)C3)CC2)cc1` (stereo not shown) [Example 112, 3-(Cyclopropyloxy)-1,4′-bipiperidin-1′-yl][4-(2-hydroxypropan-2-yl)phenyl]methanone formic acid salt] the IC50 was 358 nM.

`CC1CCCN(C2CCN(C(=O)c3ccc(C4(CN(C)S(C)(=O)=O)CCC4)cc3)CC2)C1` (stereo not shown) [Example 57, N-Methyl-N-[(1-{4-[(3-methyl-1,4′-bipiperidin-1′yl)carbonyl]phenyl}cyclobutyl)methyl]methanesulphonamide] showed an IC50 of 18 nM.

`CC1CCCN(C2CCN(C(=O)c3ccc(C(=O)NC(C)Cn4cccn4)cc3)CC2)C1` (stereo not shown) [Example 54, 4-[(3-methyl-1,4′-bipiperidin-1′-yl)carbonyl]-N-[1-(1H-pyrazol-1-yl)propan-2-yl]benzamide] was tested, and the IC50 was 199 nM.

Compound `CC1CCCN(C2CCN(C(=O)c3ccc(C(=O)NCc4cccc(Cl)n4)cc3)CC2)C1` (stereo not shown) [Example 76, N-[(6-Chloropyridin-2-yl)methyl]-4-[(3-methyl-1,4′-bipiperidin-1′-yl)carbonyl]benzamide trifluoroacetic acid salt] has an IC50 of 445 nM.

Work on `C[C@@H]1CCCN(C2CCN(C(=O)c3ccc(C(=O)NC(CCO)c4ccccc4F)cc3)CC2)C1` (stereo partly drawn) [Example 89, N-[1-(2-Fluorophenyl)-3-hydroxypropyl]-4-{[(3R)-3-methyl-1,4′-bipiperidin-1′-yl]carbonyl}benzamide trifluoroacetic acid salt] yielded an IC50 of 17 nM.

Compound `CC1CCCN(C2CCN(C(=O)c3ccc(C4(C)COC4)cc3)CC2)C1` (stereo not shown) [Example 25, (3-Methyl-1,4′-bipiperidin-1′-yl) [4-(3-methyloxetan-3-yl)phenyl]methanone] has an IC50 of 101 nM.

Work on `CC1CCCN(C2CCN(C(=O)c3ccc(C(C)(C)C)cc3O)CC2)C1` (stereo not shown) [Example 12, (2-Hydroxy-4-tert-butylphenyl)(3-methyl-1,4′-bipiperidin-1′-yl)methanone] yielded an IC50 of 87 nM.

`CCOC(=O)Cc1ccc(C(=O)N2CCC(N3CCCC(C(=O)OCC)C3)CC2)cc1` (stereo not shown) [Example 34, 3-(Ethoxycarbonyl)-1-{1-[4-(2-ethoxy-2-oxoethyl)benzoyl]piperidin-4-yl}piperidine trifluoroacetic acid salt] gave an IC50 of 86 nM.

With `CC1CCCN(C2CCN(C(=O)c3ccc(C(=O)NC(C)(C)C)cc3F)CC2)C1` (stereo not shown) [Example 102, N-tert-Butyl-3-fluoro-4-[(3-methyl-1,4′-bipiperidin-1′-yl)carbonyl]benzamide hydrochloride] the IC50 was 67 nM.
